Read-outs that look alike come from different tables or passages of the source.
Assays:
[1] = Pharmacokinetic study of YCHD components and phase II metabolites in ANIT-induced cholestatic rats (UHPLC-MS/MS, sulfatase enzymolysis); format: in vivo, rat; details: for AUC(0-∞) / Ka: Model group (ANIT 50 mg/kg cholestatic rats); for AUC(0-∞) / Ka / Cmax reduced by, cholestatic model rats compared with normal rats / AUC(0-∞) increased by, cholestatic model rats compared with normal rats / Cmax increased by, cholestatic model rats compared with normal rats / AUC(0-∞) reduced by, cholestatic model rats compared with normal rats: single oral YCHD 12 g/kg; for Cmax / Tmax / CL/F / MRT inf / Vd/F / half-life: rat, po, 12 g/kg; for CL/F: read-out: CLz/F; for MRT inf: read-out: MRT (0-∞) (converted); for Vd/F: read-out: Vz/F; for half-life: read-out: t1/2z; for in vivo absorption and excretion processes in cholestatic rats (comparison of Ka and Ke): versus normal rats, oral YCHD 12 g/kg
Experimental: To explore the pharmacokinetic properties of YCHD following intragastric administration in rats, a rapid and sensitive method involving the use of UHPLC-MS/MS (Agilent 6460 series, Agilent Technologies, Santa Clara, CA, United States) was developed and validated for the simultaneous quantification of 10 active components of rat plasma. The quantification was conducted in ESI negative ionization mode, and the mass spectrometry conditions were as follows: capillary voltage, 3500 V; gas flow, 12 L/min; nebulizer, 40 psi; gas temperature, 350°C; and delta EMV (-), 400.
To each 50 μL plasma sample, 10 μL of internal standard solution (paeoniflorin, 1000 ng/mL) and 300 μL of a mixed solution of methanol and acetonitrile (v/v, 1:1; containing 1% formic acid) were added. Subsequently, the solution was vortex mixed for 5 min. After centrifugation at 15,000 rpm for 5 min, the supernatant was transferred completely into a tube, before being evaporated under N2 at 40°C. The residue was then dissolved in 50 μL of 50% methanol–water (v/v, 1:1) through vortexing for 5 min, after centrifugation at 15,000 rpm for 10 min. Finally, 5 μL of the supernatant sample was injected into the UHPLC-MS/MS system for analysis.
The rats were randomly divided into two groups (n = 5 for each group). […] The blood samples were centrifuged at 4000 rpm for 10 min, and the supernatant plasma was harvested. Plasma samples (50 μL) were immediately processed as outlined in Section “Chromatographic and Mass Spectrometry Conditions.”
Additional plasma samples (50 μL) were enzymatically hydrolyzed with 50 μL of enzyme solution (65.86 mg of sulfatase, dissolved in 2 mL of sodium acetate buffer, pH 5.0) for phase II metabolite quantification, in accordance with our previous study ([Ding et al., 2012]). After being vortex mixed for 5 min, the mixture was incubated at 37°C for 30 min and then returned to room temperature. Subsequently, the samples were processed as outlined in Section “Chromatographic and Mass Spectrometry Conditions” for UHPLC-MS/MS analysis. During routine analysis, each analytical run included six blank plasma samples, a set of calibration samples, a set of QC samples, and unknowns.
All data are presented as mean ± SD. A one-way analysis of variance was used to compare data between two groups using SPSS (Version 21.0). The differences were considered to be statistically significant when p < 0.05 and highly significant when p < 0.01 or p < 0.001. Pharmacokinetic data analysis was performed using DAS 2.1.1 software (Mathematical Pharmacology Professional Committee of China, Shanghai, China).
The specific contents of the phase II metabolites of these components were detected indirectly by evaluating the content difference of their prototypes in samples after enzymolysis and before enzymolysis
CG = Ca −[MG × (CGG/MGG + CGe/MGe)]
Ca, CGG, and CGe represent the concentration of genipin, genipin-1-β-D-gentiobioside, and geniposide after enzymolysis of sulfatase, respectively. MG, MGG-, and MGe represent the mass of genipin, genipin-1-β-D-gentiobioside, and geniposide, respectively.

[2] = Identification of components and metabolites of YCHD in rat plasma, bile, urine and feces (UHPLC/Q-TOF-MS); format: in vivo; details: rats, oral YCHD 12 g/kg, urine, feces
Experimental: After centrifuging at 4000 rpm for 10 min, supernatant plasma was harvested into heparinized tubes and then stored at -20°C for preservation. The rats in the second group (n = 6) were kept individually in metabolic cages to collect urine and feces. […] Subsequently, the rats were orally administered a single dose of YCHD (12 g/kg of body weight). […] For the third group of rats (n = 6), bile duct intubation was implemented, and blank bile samples were collected before administration. After the administration of YCHD at 12 g/kg of body weight, the drug-containing bile samples were collected.
Plasma, bile, and urine samples (200 μL each) were separately precipitated with six times of methanol–acetonitrile mixed solution (v/v, 1:1; containing 1% formic acid). After being vortex mixed for 5 min and centrifuged at 15,000 rpm for 5 min at 4°C, the supernatant was separated into another clean tube and dried under a gentle stream of nitrogen at 45°C. Subsequently, the residue was reconstituted in 100 μL of 50% methanol–water (v/v) and then vortex mixed for 10 min. After another round of centrifugation at 15,000 rpm for 5 min at 4°C, 5 μL of the supernatant was analyzed by UHPLC-MS/MS. A 0.5 g sample of naturally dried feces was supplemented with 2 mL of 80% methanol–water (v/v) and then ultrasonically extracted for 30 min at 4°C. After being centrifuged at 15,000 rpm for 10 min, the supernatant was dried under a gentle stream of nitrogen at 45°C. Finally, the residue was reconstituted in 1 mL of 50% methanol–water (v/v) and then vortex mixed for 10 min. After another round of centrifugation at 15,000 rpm for 5 min at 4°C, 5 μL of the supernatant sample was injected into the UHPLC-MS/MS system for analysis.
Separations were conducted on an Agilent SB-C18 column (2.1 mm × 50 mm, 1.8 μm) of a UHPLC/Q-TOF-MS system (Waters, Corp., Milford, MA, United States) maintained at 40°C.
A Synapt G2 quadrupole time-of-flight (Q/TOF) MS/MS system (Waters, Corp., Manchester, United Kingdom) equipped with an electrospray ionization (ESI) interface was operated in negative ionization mode and controlled by MassLynx software (Version 4.1). The optimized conditions for maximum detection of metabolites were as follows: the capillary voltage was set at 3.0 kV, extraction cone voltage was set at 10 and 15 V, source temperature was maintained at 120°C, and desolvation temperature was maintained at 450°C. […] An MS^E approach using a dynamic ramp of collision energy was also applied at two (low and high collision energies) scan functions. The following parameters were set: Function 1 (low energy)—mass scan range, 100–1000; scan time, 0.25 s; interscan delay, 0.05 s; collision energy, 4 V. Function 2 (high energy)—mass scan range, 100–1000; scan time, 0.2 s; interscan delay, 0.05 s; collision energy ramp, 10–30 V. Data were acquired using Masslynx^TM (Version 4.1. Waters, Crop., Milford, MA, United States), and Metabolynx^TM (Waters, Crop., Milford, MA, United States) was applied for post-acquisition data processing.

| Cmax reduced by, cholestatic model rats compared with normal rats [1] [%] | Cmax ([1]; plasma) [ng/mL] | Tmax ([1]; plasma) [h] | MRT inf ([1]; plasma) [h] | CL/F ([1]; plasma) [mL/min/kg] | AUC(0-∞) reduced by, cholestatic model rats compared with normal rats [1] [%] | Vd/F ([1]; plasma) [L/kg] | half-life ([1]; plasma) [h] | Compound | AUC(0-∞) ([1]; plasma) [µg·min/L] | Ka ([1]; plasma) [min⁻¹] | Vd/F ([1]; in vivo) [L/kg] | half-life ([1]; in vivo) [h] | in vivo absorption and excretion processes in cholestatic rats (comparison of Ka and Ke) [1] | Source (biological samples in which the compound was identified) [2] | Vd/F ([1]; Sprague Dawley, plasma) [L/kg] | half-life ([1]; Sprague Dawley, plasma) [h] | AUC(0-∞) increased by, cholestatic model rats compared with normal rats [1] [%] | Cmax increased by, cholestatic model rats compared with normal rats [1] [%] | also measured |
| --- | --- | --- | --- | --- | --- | --- | --- | --- | --- | --- | --- | --- | --- | --- | --- | --- | --- | --- | --- |
| 39.5 | 63.9 ± 10.1 | 0.25 | 3.14 | 1260 ± 165 | 17.7 |  |  | COC(=O)C1=CO[C@@H](O[C@@H]2O[C@H](CO[C@@H]3O[C@H](CO)[C@@H](O)[C@H](O)[C@H]3O)[C@@H](O)[C@H](O)[C@H]2O)[C@@H]2C(CO)=CC[C@H]12 [genipin-1-β-D-gentiobiodide, Genipin-1-β-D-gentiobiodide] | 31749.4 ± 15408.0 | 106.8 ± 25.5 |  |  |  | Bile, urine | 280 ± 254 | 2.81 ± 3.01 |  |  |  |
| 57.2 | 676 ± 85 | 0.25 | 18.6 | 215 ± 37 | 41.2 | 429 ± 287 | 25.9 ± 21 | CC(=O)c1ccc(O)cc1 [4-hydroxyacetophenone, 4-Hydroxyacetophenone] | 113028.5 ± 56412.0 | 202.7 ± 235.9 |  |  | inhibited | Plasma, bile, urine, feces |  |  |  |  |  |
| 86.1 | 422 ± 87.5 | 0.25 | 2.83 | 221 ± 84 | 80.9 | 41.4 ± 20.8 | 2.19 ± 0.812 | O=C(O)c1cc(O)c2c(c1)C(=O)c1cccc(O)c1C2=O [Rhein] | 172453.1 ± 108249.8 | 478.1 ± 200.1 |  |  | inhibited | Plasma, bile, urine, feces |  |  |  |  |  |
|  |  |  |  |  |  |  |  | COC(=O)C1=CO[C@@H](O[C@@H]2O[C@H](CO)[C@@H](O)[C@H](O)[C@H]2O)[C@@H]2C(CO)=CC[C@H]12 [Geniposide] | 956445.5 ± 420665.9 | 1543.0 ± 592.8 | 22.4 ± 7.5 | 5.64 ± 0.467 | significantly enhanced | Plasma, bile, urine, feces |  |  | 148.9 | 10.2 | Cmax ([1]; in vivo): 578 ± 59.6 ng/mL; Tmax ([1]; in vivo): 0.45 h; CL/F ([1]; in vivo): 45 ± 12 mL/min/kg; MRT inf ([1]; in vivo): 7.5 h |

| Compound | Cmax reduced by, cholestatic model rats compared with normal rats [1] [%] | Cmax ([1]; plasma) [ng/mL] | Tmax ([1]; plasma) [h] | MRT inf ([1]; plasma) [h] | CL/F ([1]; plasma) [mL/min/kg] | AUC(0-∞) reduced by, cholestatic model rats compared with normal rats [1] [%] | Vd/F ([1]; plasma) [L/kg] | half-life ([1]; plasma) [h] | AUC(0-∞) ([1]; plasma) [µg·min/L] | Ka ([1]; plasma) [min⁻¹] | Vd/F ([1]; in vivo) [L/kg] | half-life ([1]; in vivo) [h] | in vivo absorption and excretion processes in cholestatic rats (comparison of Ka and Ke) [1] | Source (biological samples in which the compound was identified) [2] | Vd/F ([1]; Sprague Dawley, plasma) [L/kg] | half-life ([1]; Sprague Dawley, plasma) [h] | AUC(0-∞) increased by, cholestatic model rats compared with normal rats [1] [%] | Cmax increased by, cholestatic model rats compared with normal rats [1] [%] | also measured |
| --- | --- | --- | --- | --- | --- | --- | --- | --- | --- | --- | --- | --- | --- | --- | --- | --- | --- | --- | --- |
| COC(=O)C1=COC(OC2OC(CO)C(O)C(O)C2O)C2C(CO)=CC(O)C12 (stereo not drawn) [Scandoside methyl ester] | 26.3 |  |  |  |  |  |  |  | 300942.4 ± 177466.0 | 22.6 ± 38.8 | 95.6 ± 26.6 | 11.5 ± 3.28 | inhibited | Plasma, bile, urine, feces |  |  |  |  | Cmax ([1]; Sprague Dawley, in vivo): 93.8 ± 13.7 ng/mL; Tmax ([1]; Sprague Dawley, in vivo): 4.4 h; CL/F ([1]; Sprague Dawley, in vivo): 98 ± 16 mL/min/kg; MRT inf ([1]; Sprague Dawley, in vivo): 16.7 h |
| O=C(O)C1=CO[C@@H](O[C@@H]2O[C@H](CO)[C@@H](O)[C@H](O)[C@H]2O)[C@@H]2C(CO)=CC[C@H]12 [Geniposidic acid] |  | 1690 ± 251 | 4 | 9.5 |  |  |  |  | 3007701.6 ± 1408367.9 | 41280.6 ± 37036.2 |  |  | significantly enhanced | Plasma, urine, feces | 4990 ± 1180 | 5.23 ± 1.44 | 85.5 | 153.7 |  |

Source: publication PMC5962729 (Frontiers in Pharmacology, 2018)
